{"source": "patent US20250206732A1", "about": "“COMPOUNDS AND METHODS FOR THE TARGETED DEGRADATION OF KRAS” (Arvinas Operations, Inc., priority 2022, published 2025)", "target": "T1, AsPC-1 HiBiT-KRASG12D (Homo sapiens, UniProt P01116, G12D)", "T1 construct": "insert the HiBiT tag onto the N-terminus of one or more of the endogenous KRAS alleles; endogenous in cells; host or cells: AsPC-1 (ATCC CRL-1682), CRISPR-Cas9 knock-in clone, one tagged allele", "T1 sequence (P01116 1-188 isoform P01116-2 G12D)": "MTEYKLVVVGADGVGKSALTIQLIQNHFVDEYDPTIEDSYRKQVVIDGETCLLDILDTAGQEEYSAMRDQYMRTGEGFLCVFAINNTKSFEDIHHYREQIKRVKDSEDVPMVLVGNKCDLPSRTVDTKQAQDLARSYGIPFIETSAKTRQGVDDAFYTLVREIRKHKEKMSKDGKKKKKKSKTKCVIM", "test": "HiBiT degradation assay (G12D), AsPC-1 HiBiT-KRASG12D cells", "format": "cell-based", "details": "24 hours treatment; for Dmax: ASPC1, AsPC-1 HiBiT-KRASG12D cells, maximum degradation observed; for DC50: AsPC-1 HiBiT-KRASG12D cells, HiBiT luminescence", "in_short": "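Steps: treat HiBiT-KRASG12D AsPC-1 cells with compound for 24 hours; add alamar blue to 1× and incubate 4 hours to assess viability; wash with PBS; add HiBiT lytic detection reagent, incubate 45 minutes at room temperature; read luminescence. Viability fluorescence is normalized to DMSO wells.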", "data": [{"molecule": "CCc1cccc2cc(O)cc(-c3ncc4c(N5CC6CCC(C5)N6)nc(OCCN5CCC(CC6CCN(c7cc([C@H](C(=O)N8C[C@H](O)C[C@H]8C(=O)N[C@@H](C)c8ccc(-c9ccnn9C)cc8)C(C)C)on7)CC6)CC5)nc4c3F)c12", "note": "[Compound 202, (2S,4R)-1-[(2R)-2-(3-{4-[(1-{2-[(4-{3,8-diazabicyclo[3.2.1]octan-3-yl}-7-(8-ethyl-3-hydroxynaphthalen-1-yl)-8-fluoropyrido[4,3-d]pyrimidin-2-yl)oxy]ethyl}piperidin-4-yl)methyl]piperidin-1-yl}-1,2-oxazol-5-yl)-3-methylbutanoyl]-4-hydroxy-N-[(1S)-1-[4-(1-methyl-1H-pyrazol-5-yl)phenyl]ethyl]pyrrolidine-2-carboxamide]", "values": [{"measurement": "Dmax", "value": "80 to 100", "unit": "%"}, {"measurement": "DC50", "value": "< 600", "unit": "nM"}]}, {"molecule": "CCc1cccc2cc(O)cc(-c3ncc4c(N5CC6CCC(C5)N6)nc(OC[C@]56CCCN5[C@H](COC(=O)N5CC(COc7cc([C@@H](C(=O)N8C[C@H](O)C[C@H]8C(=O)N[C@@H](C)c8ccc(-c9scnc9C)cc8)C(C)C)on7)C5)CC6)nc4c3F)c12", "note": "[Compound 122, [(3S,7aR)-7a-{[(4-{3,8-diazabicyclo[3.2.1]octan-3-yl}-7-(8-ethyl-3-hydroxynaphthalen-1-yl)-8-fluoropyrido[4,3-d]pyrimidin-2-yl)oxy]methyl}-hexahydro-1H-pyrrolizin-3-yl]methyl 3-[({5-[(2S)-1-[(2S,4R)-4-hydroxy-2-{[(1S)-1-[4-(4-methyl-1,3-thiazol-5-yl)phenyl]ethyl]carbamoyl}pyrrolidin-1-yl]-3-methyl-1-oxobutan-2-yl]-1,2-oxazol-3-yl}oxy)methyl]azetidine-1-carboxylate]", "values": [{"measurement": "Dmax", "value": "20 to 60", "unit": "%"}, {"measurement": "DC50", "value": "600 to 1000", "unit": "nM"}]}, {"molecule": "CCc1cccc2cc(O)cc(-c3ncc4c(N5CC6CCC(C5)N6)nc(OCCN5CCC(CC6CN(c7cc([C@H](C(=O)N8C[C@H](O)C[C@H]8C(=O)N[C@@H](C)c8ccc(-c9scnc9C)cc8)C(C)C)on7)C6)CC5)nc4c3F)c12", "note": "[Compound 81, (2S,4R)-1-[(2R)-2-(3-{3-[(1-{2-[(4-{3,8-diazabicyclo[3.2.1]octan-3-yl}-7-(8-ethyl-3-hydroxynaphthalen-1-yl)-8-fluoropyrido[4,3-d]pyrimidin-2-yl)oxy]ethyl}piperidin-4-yl)methyl]azetidin-1-yl}-1,2-oxazol-5-yl)-3-methylbutanoyl]-4-hydroxy-N-[(1S)-1-[4-(4-methyl-1,3-thiazol-5-yl)phenyl]ethyl]pyrrolidine-2-carboxamide]", "values": [{"measurement": "Dmax", "value": "80 to 100", "unit": "%"}, {"measurement": "DC50", "value": "< 600", "unit": "nM"}]}, {"molecule": "CCc1cccc2cc(O)cc(-c3ncc4c(N5CC6CCC(C5)N6)nc(OC[C@]56CCCN5[C@H](COC(=O)N5CCN(c7cc([C@@H](C(=O)N8C[C@H](O)C[C@H]8C(=O)N[C@@H](C)c8ccc(-c9scnc9C)cc8)C(C)C)on7)[C@@H](C)C5)CC6)nc4c3F)c12", "note": "[Compound 124, [(3S,7aR)-7a-{[(4-{3,8-diazabicyclo[3.2.1]octan-3-yl}-7-(8-ethyl-3-hydroxynaphthalen-1-yl)-8-fluoropyrido[4,3-d]pyrimidin-2-yl)oxy]methyl}-hexahydro-1H-pyrrolizin-3-yl]methyl (3S)-4-{5-[(2S)-1-[(2S,4R)-4-hydroxy-2-{[(1S)-1-[4-(4-methyl-1,3-thiazol-5-yl)phenyl]ethyl]carbamoyl}pyrrolidin-1-yl]-3-methyl-1-oxobutan-2-yl]-1,2-oxazol-3-yl}-3-methylpiperazine-1-carboxylate]", "values": [{"measurement": "Dmax", "value": "< 20", "unit": "%"}, {"measurement": "DC50", "value": "< 600", "unit": "nM"}]}, {"molecule": "C#Cc1c(F)ccc2cc(O)cc(-c3ncc4c(N5CC6CCC(C5)N6)nc(OCCN5CCC(CC6CN(c7cc([C@H](C(=O)N8C[C@H](O)C[C@H]8C(=O)N[C@@H](C)c8ccc(-c9ccnn9C)cc8)C(C)C)on7)C6)CC5)nc4c3F)c12", "note": "[Compound 156, (2S,4R)-1-[(2R)-2-(3-{3-[(1-{2-[(4-{3,8-diazabicyclo[3.2.1]octan-3-yl}-7-(8-ethynyl-7-fluoro-3-hydroxynaphthalen-1-yl)-8-fluoropyrido[4,3-d]pyrimidin-2-yl)oxy]ethyl}piperidin-4-yl)methyl]azetidin-1-yl}-1,2-oxazol-5-yl)-3-methylbutanoyl]-4-hydroxy-N-[(1S)-1-[4-(1-methyl-1H-pyrazol-5-yl)phenyl]ethyl]pyrrolidine-2-carboxamide]", "values": [{"measurement": "Dmax", "value": "80 to 100", "unit": "%"}, {"measurement": "DC50", "value": "< 600", "unit": "nM"}]}, {"molecule": "CCc1cccc2cc(O)cc(-c3ncc4c(N5CC6CCC(C5)N6)nc(OC[C@]56CCCN5[C@@H](COC(=O)N(C)Cc5cc([C@@H](C(=O)N7C[C@H](O)C[C@H]7C(=O)N[C@@H](C)c7ccc(-c8scnc8C)cc7)C(C)C)on5)CC6)nc4c3F)c12", "note": "[Compound 93, [(3R,7aR)-7a-{[(4-{3,8-diazabicyclo[3.2.1]octan-3-yl}-7-(8-ethyl-3-hydroxynaphthalen-1-yl)-8-fluoropyrido[4,3-d]pyrimidin-2-yl)oxy]methyl}-hexahydro-1H-pyrrolizin-3-yl]methyl N-({5-[(2S)-1-[(2S,4R)-4-hydroxy-2-{[(1S)-1-[4-(4-methyl-1,3-thiazol-5-yl)phenyl]ethyl]carbamoyl}pyrrolidin-1-yl]-3-methyl-1-oxobutan-2-yl]-1,2-oxazol-3-yl}methyl)-N-methylcarbamate]", "values": [{"measurement": "Dmax", "value": "20 to 60", "unit": "%"}, {"measurement": "DC50", "value": "1000 to 3000", "unit": "nM"}]}, {"molecule": "CCc1cccc2cc(O)cc(-c3ncc4c(N5CC6CCC(C5)N6)nc(OCCN5CCC(O)(CC6CCN(c7cc([C@@H](C(=O)N8C[C@H](O)C[C@H]8C(=O)N[C@@H](C)c8ccc(-c9scnc9C)cc8)C(C)C)on7)CC6)CC5)nc4c3F)c12", "note": "[Compound 205, (2S,4R)-1-[(2S)-2-(3-{4-[(1-{2-[(4-{3,8-diazabicyclo[3.2.1]octan-3-yl}-7-(8-ethyl-3-hydroxynaphthalen-1-yl)-8-fluoropyrido[4,3-d]pyrimidin-2-yl)oxy]ethyl}-4-hydroxypiperidin-4-yl)methyl]piperidin-1-yl}-1,2-oxazol-5-yl)-3-methylbutanoyl]-4-hydroxy-N-[(1S)-1-[4-(4-methyl-1,3-thiazol-5-yl)phenyl]ethyl]pyrrolidine-2-carboxamide]", "values": [{"measurement": "Dmax", "value": "20 to 60", "unit": "%"}, {"measurement": "DC50", "value": "1000 to 3000", "unit": "nM"}]}, {"molecule": "C#Cc1c(F)ccc2cc(O)cc(-c3ncc4c(N5CC6CCC(C5)N6)nc(OCCN5CCC(C(C)(C)N6CCN(c7cc([C@H](C(=O)N8C[C@H](O)C[C@H]8C(=O)N[C@@H](C)c8ccc(-c9scnc9C)cc8)C(C)C)on7)CC6)CC5)nc4c3F)c12", "note": "[Compound 175, (2S,4R)-1-[(2R)-2-(3-{4-[2-(1-{2-[(4-{3,8-diazabicyclo[3.2.1]octan-3-yl}-7-(8-ethynyl-7-fluoro-3-hydroxynaphthalen-1-yl)-8-fluoropyrido[4,3-d]pyrimidin-2-yl)oxy]ethyl}piperidin-4-yl)propan-2-yl]piperazin-1-yl}-1,2-oxazol-5-yl)-3-methylbutanoyl]-4-hydroxy-N-[(1S)-1-[4-(4-methyl-1,3-thiazol-5-yl)phenyl]ethyl] pyrrolidine-2-carboxamide]", "values": [{"measurement": "Dmax", "value": "80 to 100", "unit": "%"}, {"measurement": "DC50", "value": "< 600", "unit": "nM"}]}, {"molecule": "CCc1cccc2cc(O)cc(-c3ncc4c(N5CC6CCC(C5)N6)nc(OCCN5CCC(O)(CC6CCN(c7cc([C@H](C(=O)N8C[C@H](O)C[C@H]8C(=O)N[C@@H](C)c8ccc(-c9scnc9C)cc8)C(C)C)on7)CC6)CC5)nc4c3F)c12", "note": "[Compound 204, (2S,4R)-1-[(2R)-2-(3-{4-[(1-{2-[(4-{3,8-diazabicyclo[3.2.1]octan-3-yl}-7-(8-ethyl-3-hydroxynaphthalen-1-yl)-8-fluoropyrido[4,3-d]pyrimidin-2-yl)oxy]ethyl}-4-hydroxypiperidin-4-yl)methyl]piperidin-1-yl}-1,2-oxazol-5-yl)-3-methylbutanoyl]-4-hydroxy-N-[(1S)-1-[4-(4-methyl-1,3-thiazol-5-yl)phenyl]ethyl]pyrrolidine-2-carboxamide]", "values": [{"measurement": "Dmax", "value": "80 to 100", "unit": "%"}, {"measurement": "DC50", "value": "< 600", "unit": "nM"}]}, {"molecule": "CCc1cccc2cc(O)cc(-c3ncc4c(N5CC6CCC(C5)N6)nc(OC[C@]56CCCN5[C@@H](COc5cc([C@@H](C(=O)N7C[C@H](O)C[C@H]7C(=O)N[C@@H](C)c7ccc(-c8scnc8C)cc7)C(C)C)on5)CC6)nc4c3F)c12", "note": "[Compound 28, (2S,4R)-1-[(2S)-2-(3-{[(3R,7aR)-7a-{[(4-{3,8-diazabicyclo[3.2.1]octan-3-yl}-7-(8-ethyl-3-hydroxynaphthalen-1-yl)-8-fluoropyrido[4,3-d]pyrimidin-2-yl)oxy]methyl}-hexahydro-1H-pyrrolizin-3-yl]methoxy}-1,2-oxazol-5-yl)-3-methylbutanoyl]-4-hydroxy-N-[(1S)-1-[4-(4-methyl-1,3-thiazol-5-yl)phenyl]ethyl]pyrrolidine-2-carboxamide]", "values": [{"measurement": "DC50", "value": "> 3000", "unit": "nM"}]}, {"molecule": "CCc1cccc2cc(O)cc(-c3ncc4c(N5CC6CCC(C5)N6)nc(OC[C@@]56CCCN5[C@H](COC(=O)NCc5cc([C@@H](C(=O)N7C[C@H](O)C[C@H]7C(=O)N[C@@H](C)c7ccc(-c8scnc8C)cc7)C(C)C)on5)CC6)nc4c3F)c12", "note": "[Compound 100, [(3S,7aS)-7a-{[(4-{3,8-diazabicyclo[3.2.1]octan-3-yl}-7-(8-ethyl-3-hydroxynaphthalen-1-yl)-8-fluoropyrido[4,3-d]pyrimidin-2-yl)oxy]methyl}-hexahydro-1H-pyrrolizin-3-yl]methyl N-({5-[(2S)-1-[(2S,4R)-4-hydroxy-2-{[(1S)-1-[4-(4-methyl-1,3-thiazol-5-yl)phenyl]ethyl]carbamoyl}pyrrolidin-1-yl]-3-methyl-1-oxobutan-2-yl]-1,2-oxazol-3-yl}methyl) carbamate]", "values": [{"measurement": "Dmax", "value": "20 to 60", "unit": "%"}, {"measurement": "DC50", "value": "1000 to 3000", "unit": "nM"}]}]}
